Starred links: 1 amine or outer side, 2 acyl side, 3 side chain; linkers in the order of their positions; H or OH if unused. Positions of bridges follow the written chain, without caps; N, C: chain ends. Non-standard residues stand in square brackets, D forms with d. Residues, ends and D or L forms follow the SMILES beside them. ξ: configuration not given here. *: point of attachment. X15 = CC(NC(=O)CCNC(N)=O)C(N[*:1])C(=O)[*:2]; ξAbu(βξ-NH2) = CC(N[*:3])C(N[*:1])C(=O)[*:2]; X20 = CC#CC(=O)NC(C)C(N[*:1])C(=O)[*:2]; X4 = CNCC(=O)NC(C)C(N[*:1])C(=O)[*:2]; Pentadecanoyl = CCCCCCCCCCCCCCC(=O)*; ξAsp(βξ-Me) = CC(C(=O)O)C(N)C(=O)O; ξAbu(3ξ-NH2) = CC(N)C(N)C(=O)O; Undecanoyl = CCCCCCCCCCC(=O)*; Pip = O=C(O)[CH]1CCCCN1; ξD = NC(CC(=O)O)C(=O)O; ξPip = O=C(O)C1CCCCN1; ξV = CC(C)C(N)C(=O)O; ξP = O=C(O)C1CCCN1; OtBu = CC(C)(C)O*

Here are results for 18 molecules from US7868135B2, “Compositions of lipopeptide antibiotic derivatives and methods of use thereof” (priority 2003, dated 2011).

One assay relates to Staphylococcus aureus (MSSA). To be noted: 24 h. The method, then:
(“Approved Standard M7-A3”).
The antimicrobial lipopeptide derivatives described herein were tested for antimicrobial activity against Gram-positive bacteria as follows. The minimum inhibitory concentrations (MIC) of the antimicrobial lipopeptide derivatives of the invention were determined using NCCLS guidelines M7-A6 (2003) with a slight modification in that doubling serial dilutions were used to dilute the test compounds. The broth phase microdilution method was used. Isolated colonies of Staphylococcus aureus (MSSA) from an 18-24 hour blood agar plate cultures were used to inoculate cation adjusted Mueller-Hinton broth (CAMHB) supplemented with 0.625 mM calcium. […] A negative control containing media alone and a positive growth control containing bacteria with media alone were also included. MICs were determined after incubating the plates at about 37° C. for 24 hours. […] In Tables 1 to 16, R is the core cyclic peptide of amphomycin or aspartocin, which can be in the form of a β-isomer, an anhydro, a dianhydro, or any combination thereof. […] Furthermore, a person of skill in the art will appreciate that all the pounds, or groups of compounds, derived from the various combinations of and substituents shown in Tables 1 to 16, are disclosed by the present the same extent as if each compound or group of compounds was set forth individually.
For `CCCCCCCCCCCCCCC(=O)NC(CC(=O)O)C(=O)NC1C(=O)N2CCCCC2C(=O)NC(C(C)C(=O)O)C(=O)NC(CC(=O)O)C(=O)NCC(=O)NC(CC(=O)O)C(=O)NCC(=O)NC(C(C)NC(=O)CNC(=O)CNC(=O)[C@@H](N)CCCCN)C(=O)NC(C(C)C)C(=O)N2CCCC2C(=O)NC1C` (stereo partly drawn) [Compound 192, C15-Amphomycin-9-Gly-Gly-Lys], the minimal inhibitory concentration (MIC) was in the range of 0.5 to 1 µg/mL.

As for `CCCCCCCCCCCNC(=O)NCCCC(=O)NC(CC(=O)O)C(=O)NC1C(=O)N2CCCCC2C(=O)NC(C(C)C(=O)O)C(=O)NC(CC(=O)O)C(=O)NCC(=O)NC(CC(=O)O)C(=O)NCC(=O)NC(C(C)N)C(=O)NC(C(C)C)C(=O)N2CCCC2C(=O)NC1C` (stereo not drawn) [Compound 304, CH3—(CH2)10—NH—C(═O)-GABA-Amphomycin], the MIC amounted to 4 µg/mL. As for `CC#CC(=O)NC(C)C1NC(=O)CNC(=O)C(CC(=O)O)NC(=O)CNC(=O)C(CC(=O)O)NC(=O)C(C(C)C(=O)O)NC(=O)C2CCCCN2C(=O)C(NC(=O)C(CC(=O)O)NC(=O)CCCCCCCCCCCCCC)C(C)NC(=O)C2CCCN2C(=O)C(C(C)C)NC1=O` (stereo not drawn) [Compound 227, C15-Amphomycin-9-(2-Butynyl)] (Pentadecanoyl-D[ξAbu(βξ-NH2)][Pip][ξAsp(βξ-Me)]DGDG[X20]VP; lactam 2-C; configuration not given here), the MIC stood at 32 µg/mL.

For `CCCCCCCCCCC(=O)N[C@@H](CC(=O)OC(C)(C)C)C(=O)NC(CC(=O)O)C(=O)NC1C(=O)N2CCCCC2C(=O)NC(C(C)C(=O)O)C(=O)NC(CC(=O)O)C(=O)NCC(=O)NC(CC(=O)O)C(=O)NCC(=O)NC(C(C)N)C(=O)NC(C(C)C)C(=O)N2CCCC2C(=O)NC1C` (stereo partly drawn) [Compound 314, C11-(Asp-(OtBu))-Amphomycin] (Undecanoyl-D(OtBu)[ξD][ξAbu(βξ-NH2)][ξPip][ξAsp(βξ-Me)][ξD]G[ξD]G[ξAbu(3ξ-NH2)][ξV][ξP]; lactam 3-C), the minimal inhibitory concentration (MIC) came out at 8 µg/mL. Same read-out and setting: next, `CCCCCCCCCCCCCCC(=O)N[C@H](Cc1ccccc1)C(=O)NC(CC(=O)O)C(=O)NC1C(=O)N2CCCCC2C(=O)NC(C(C)C(=O)O)C(=O)NC(CC(=O)O)C(=O)NCC(=O)NC(CC(=O)O)C(=O)NCC(=O)NC(C(C)N)C(=O)NC(C(C)C)C(=O)N2CCCC2C(=O)NC1C` (stereo partly drawn) [Compound 116, C15-(D-Phe)-Amphomycin] (Pentadecanoyl-[dF][ξD][ξAbu(βξ-NH2)][ξPip][ξAsp(βξ-Me)][ξD]G[ξD]G[ξAbu(3ξ-NH2)][ξV][ξP]; lactam 3-C): 1 µg/mL; `CCCCCCCCCCCCCCC(=O)NC(CC(=O)O)C(=O)NC1C(=O)N2CCCCC2C(=O)NC(C(C)C(=O)O)C(=O)NC(CC(=O)O)C(=O)NCC(=O)NC(CC(=O)O)C(=O)NCC(=O)NC(C(C)NC(=O)[C@H]2CCCN2C(=O)[C@H](N)CCCCN)C(=O)NC(C(C)C)C(=O)N2CCCC2C(=O)NC1C` (stereo partly drawn) [Compound 151, C15-Amphomycin-9-(D-Pro)-(D-Lys)]: 16 µg/mL; `CCCCCCCCCCCCCCC(=O)NC(CC(=O)O)C(=O)NC1C(=O)N2CCCCC2C(=O)NC(C(C)C(=O)O)C(=O)NC(CC(=O)O)C(=O)NCC(=O)NC(CC(=O)O)C(=O)NCC(=O)NC(C(C)NC(=O)CCCCCCCCCCN)C(=O)NC(C(C)C)C(=O)N2CCCC2C(=O)NC1C` (stereo not drawn) [Compound 34, C15-Amphomycin-9-C(═O)—(CH2)10—NH2]: 32 to 64 µg/mL. As to `CCCCCCCCCCCCCCC(=O)NC(CC(=O)O)C(=O)NC1C(=O)N2CCCCC2C(=O)NC(C(C)C(=O)O)C(=O)NC(CC(=O)O)C(=O)NCC(=O)NC(CC(=O)O)C(=O)NCC(=O)NC(C(C)NC(=O)CNC(=O)[C@@H](N)CC(C)C)C(=O)NC(C(C)C)C(=O)N2CCCC2C(=O)NC1C` (stereo partly drawn) [Compound 46, C15-Amphomycin-9-Gly-Leu], the minimum inhibitory concentration (MIC) was 1 µg/mL. Turning to `CCCCCCCCCCCCCCC(=O)NC(CC(=O)O)C(=O)NC1C(=O)N2CCCCC2C(=O)NC(C(C)C(=O)O)C(=O)NC(CC(=O)O)C(=O)NCC(=O)NC(CC(=O)O)C(=O)NCC(=O)NC(C(C)NC(=O)CCC)C(=O)NC(C(C)C)C(=O)N2CCCC2C(=O)NC1C` (stereo not drawn) [Compound 207, C15-Amphomycin-9-C4], the MIC came to 16 µg/mL. With `CNCC(=O)NC(C)C1NC(=O)CNC(=O)C(CC(=O)O)NC(=O)CNC(=O)C(CC(=O)O)NC(=O)C(C(C)C(=O)O)NC(=O)C2CCCCN2C(=O)C(NC(=O)C(N)CC(=O)O)C(C)NC(=O)C2CCCN2C(=O)C(C(C)C)NC1=O` (stereo not drawn) [Compound 356, Amphomycin-9-Sar] (H-D[ξAbu(βξ-NH2)][Pip][ξAsp(βξ-Me)]DGDG[X4]VP; lactam 2-C; configuration not given here), the minimal inhibitory concentration (MIC) was >64 µg/mL. Same read-out and setting: next, `CCCCCCCCCCCCCCC(=O)NC(CC(=O)O)C(=O)NC1C(=O)N2CCCCC2C(=O)NC(C(C)C(=O)O)C(=O)NC(CC(=O)O)C(=O)NCC(=O)NC(CC(=O)O)C(=O)NCC(=O)NC(C(C)NC(=O)[C@@H](N)CCCCN)C(=O)NC(C(C)C)C(=O)N2CCCC2C(=O)NC1C` (single isomer, unassigned) [Compound 129, C15-Amphomycin-9-Lys]: 1 µg/mL; `CCCCCCCCCCCCCCC(=O)NC(CC(=O)O)C(=O)NC1C(=O)N2CCCCC2C(=O)NC(C(C)C(=O)O)C(=O)NC(CC(=O)O)C(=O)NCC(=O)NC(CC(=O)O)C(=O)NCC(=O)NC(C(C)NC(=O)CCNC(N)=O)C(=O)NC(C(C)C)C(=O)N2CCCC2C(=O)NC1C` (stereo not drawn) [Compound 212, C15-Amphomycin-9-(Carbamoyl-β-Ala)] (Pentadecanoyl-D[ξAbu(βξ-NH2)][Pip][ξAsp(βξ-Me)]DGDG[X15]VP; lactam 2-C; configuration not given here): 1 µg/mL; `CCCCCCCCCCCCCCC(=O)NC(CC(=O)O)C(=O)NC1C(=O)N2CCCCC2C(=O)NC(C(C)C(=O)O)C(=O)NC(CC(=O)O)C(=O)NCC(=O)NC(CC(=O)O)C(=O)NCC(=O)NC(C(C)NC(=O)[C@@H](N)CCC(N)=O)C(=O)NC(C(C)C)C(=O)N2CCCC2C(=O)NC1C` (stereo partly drawn) [Compound 43, C15-Amphomycin-9-Gln]: 8 to 16 µg/mL. `CCCCCCCCCCCCCCC(=O)NC(CC(=O)O)C(=O)NC1C(=O)N2CCCCC2C(=O)NC(C(C)C(=O)O)C(=O)NC(CC(=O)O)C(=O)NCC(=O)NC(CC(=O)O)C(=O)NCC(=O)NC(C(C)NC(=O)CNC(=O)CCCN)C(=O)NC(C(C)C)C(=O)N2CCCC2C(=O)NC1C` (stereo not drawn) [Compound 68, C15-Amphomycin-9-Gly-GABA]: the minimum inhibitory concentration (MIC) was found to be 2 µg/mL.

The same assay, now with this note: S. aureus (MSSA), CAMHB supplemented with 0.625 mM calcium, 24 hours at about 37° C.; a range = compound tested multiple times.
In the case of `CCCCCCCCCCCC(=O)NC(CC(=O)O)C(=O)NC1C(=O)N2CCCCC2C(=O)NC(C(C)C(=O)O)C(=O)NC(CC(=O)O)C(=O)NCC(=O)NC(CC(=O)O)C(=O)NCC(=O)NC(C(C)NC(=O)CN)C(=O)NC(C(C)C)C(=O)N2CCCC2C(=O)NC1C` (stereo not drawn) [Compound 58, C12-Amphomycin-9-Gly], the MIC was 58/4-8 μg/mL. Still for that read-out and setting: next, `CCCCCCCCCCCC(=O)NC(CC(=O)O)C(=O)NC1C(=O)N2CCCCC2C(=O)NC(C(C)C(=O)O)C(=O)NC(CC(=O)O)C(=O)NCC(=O)NC(CC(=O)O)C(=O)NCC(=O)NC(C(C)NC(=O)CNC(=O)[C@@H](N)CCCCN)C(=O)NC(C(C)C)C(=O)N2CCCC2C(=O)NC1C` (stereo partly drawn) [Compound 143, C12-Amphomycin-9-Gly-Lys]: 143/2-4 μg/mL; `CCCCCCCCCCCC(=O)NC(CC(=O)O)C(=O)NC1C(=O)N2CCCCC2C(=O)NC(C(C)C(=O)O)C(=O)NC(CC(=O)O)C(=O)NCC(=O)NC(CC(=O)O)C(=O)NCC(=O)NC(C(C)NC(=O)CNC)C(=O)NC(C(C)C)C(=O)N2CCCC2C(=O)NC1C` (stereo not drawn) [Compound 74, C12-Amphomycin-9-Sar]: 74/4 μg/mL. As to “CH3—(CH2)13—NH—C(═O)-(M-Phenylacetyl)-Amphomycin [Compound 292]”, the MIC stood at 1 µg/mL.
